The values below come from publication PMC5640650, “NatD promotes lung cancer progression by preventing histone H4 serine phosphorylation to activate Slug expression” (Nature Communications, 2017).

The test system of one data set is LLC cells. As to the kind of experiment: Expression of EMT genes, LLC cells. The class given is cell-based, murine. The conditions noted are these: vs Scr. The protocol:
(§1) Cellular proteins were extracted by RIPA lysis buffer at high salt concentration (420 mM NaCl), and western blot analysis was performed in accordance with standard protocols. Scans of enhanced chemiluminescence (ECL) films showing uncropped blots are presented in Supplementary Fig. 10. […]
(§2) Total RNA from tissue samples and cultured cells was extracted using TRIzol reagent (Invitrogen). cDNAs were synthesized with a HiScript 1st Strand cDNA Synthesis Kit (Vazyme Biotech, China). Quantitative RT-PCR was performed using a FastStart Universal SYBR Green Master (Roche) according to the manufacturer’s instructions in a Rotor-Gene 6000 (Corbett Research) in a final volume of 20 μl. […]
Representative blots from three independent experiments. […] (bottom) Cell migration and invasion expressed as a percentage of Scr control. […]
Results are shown as mean ± s.d. from 5 mice; two-tailed Student’s t-test, **P<0.01 compared to Scr control. (e) Quantitative real-time PCR analysis of mRNA levels of NatD and key EMT-related genes in Scr control and NatD-KD LLC cells normalized to GAPDH. […]

The subject of another data set is CK2α. Put plainly: CK2α mRNA and protein expression, H1299 cells. The class given is cell-based, human. The conditions noted are these: vs Scr. On the procedure:
as §1, §2
Supplementary Figure 8. […] (a) Quantitative real-time PCR analysis of NatD and CK2α mRNA levels in scrambled and NatD-KD H1299 cells normalized to GAPDH. […]

Turning to “NatD-KD2: Human NatD shRNA KD2: 5′-GGTTGAATGTCTCCATTGA-3′, lentiviral (shRNA lentiviral)”, in the data set with LLC cells, the “expression of E-cadherin” value is given as “increased the expression”; the “expression of Slug, N-cadherin, and Vimentin” value was “decreased the expression”. Further, in the data set on CK2α, the “levels of CK2α mRNA or protein” value is “no increase”.
